Results as given in patent publication US6365582B1, “S-substitute 11β-benzaldoxime-estra-4, 9-diene-carbonic acid thiolesters, method for the production thereof and pharmaceutical preparations containing these compounds” (Jenapharm GmbH & Co. KG, priority 1998, dated 2002).
One block for each molecule: values may come before it.

Experiments:
guinea pig in cycle = experiment: Antiluteolysis test/ovulation inhibition test in the guinea pig in cycle; type: in vivo; details: for Prostaglandin / PGFM levels in the blood (in words): guinea pig
Method: Antiluteolysis test/ovulation inhibition test in the guinea pig in cycle: This test is based on the fact that progesterone at the end of the cycle stimulates uterine prostaglandin secretion. In the guinea pig, the inhibition of this function leads to a persistence of the corpora lutea (antiluteolysis). […] This test thus allows the therapy-relevant typing of progesterone antagonists as ? pure” or ? agonistic” substances. Guinea pigs are treated with the test substance on day 10 to day 17 of the cycle. The progesterone concentrations in the serum are determined on day 10 before substance treatment and on the following days until autopsy ([…]., Beier, […]., Crundel, M. et al. in Current Concepts in Fertility Regulation and Reproduction, (eds). Puri, C. P. and Van Look, P. F. H. (1994) 303-328).

progesterone receptor = molecular target: T1, progesterone receptor (Oryctolagus cuniculus, UniProt P06186); experiment: Receptor binding affinity, progesterone receptor (competitive binding, uterus cytosol); details: Progesterone = 100%; uterus cytosol of estradiol-primed rabbit; tracer 3H-ORG 2058
T1 construct: receptors in the cytosol of animal target organs; from tissue; host or cells: uterus cytosol of the estradiol-primed rabbit
T1 sequence (P06186 1-930): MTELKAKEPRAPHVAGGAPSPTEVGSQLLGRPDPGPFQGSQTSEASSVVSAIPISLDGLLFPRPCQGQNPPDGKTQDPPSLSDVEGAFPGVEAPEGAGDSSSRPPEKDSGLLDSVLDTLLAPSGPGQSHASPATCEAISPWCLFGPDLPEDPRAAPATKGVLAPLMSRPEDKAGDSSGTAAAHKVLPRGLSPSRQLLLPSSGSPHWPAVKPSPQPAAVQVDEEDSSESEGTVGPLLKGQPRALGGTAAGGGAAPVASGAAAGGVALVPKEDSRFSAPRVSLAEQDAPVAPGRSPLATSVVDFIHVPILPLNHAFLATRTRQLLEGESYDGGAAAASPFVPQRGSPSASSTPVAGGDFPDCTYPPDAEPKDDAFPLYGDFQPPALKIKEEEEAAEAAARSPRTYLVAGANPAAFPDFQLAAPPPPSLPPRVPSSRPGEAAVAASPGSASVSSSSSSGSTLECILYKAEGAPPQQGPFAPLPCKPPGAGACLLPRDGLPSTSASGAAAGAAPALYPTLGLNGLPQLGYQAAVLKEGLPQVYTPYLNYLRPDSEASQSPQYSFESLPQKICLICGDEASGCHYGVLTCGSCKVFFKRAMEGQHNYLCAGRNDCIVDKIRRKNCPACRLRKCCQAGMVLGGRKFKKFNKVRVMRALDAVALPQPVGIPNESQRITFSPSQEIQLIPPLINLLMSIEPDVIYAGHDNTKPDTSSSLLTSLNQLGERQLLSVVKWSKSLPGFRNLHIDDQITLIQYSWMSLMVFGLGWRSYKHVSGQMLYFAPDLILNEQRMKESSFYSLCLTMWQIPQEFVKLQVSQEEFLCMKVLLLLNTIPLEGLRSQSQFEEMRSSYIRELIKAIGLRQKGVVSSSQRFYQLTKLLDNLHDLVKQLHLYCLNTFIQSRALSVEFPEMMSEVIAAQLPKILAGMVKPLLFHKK
Method: (§1) Measurement of the receptor binding affinity
(§2) The receptor binding affinity was determined by competitive binding of a specifically binding ^3H-labeled hormone (tracer) and the compound to be tested to receptors in the cytosol of animal target organs. Receptor saturation and reaction equilibrium were aimed at here. The following incubation conditions were chosen:
Progesterone receptor Uterus cytosol of the estradiol-primed rabbit, stored at −30° C.
Buffer for homogenization and incubation: TED buffer 20 mM tris/HCl, pH [sic]=7.4; 1 mM ethylenediamine tetracetate, 2 mM dithiothreitol) containing 250 mM sucrose.
Reference substance: progesterone.
(§3) After an incubation of receptor fraction, tracer and competitor for 18 h at 0-4° C., the bound and free steroid were separated by mixing in active carbon/dextran (1%/0.1%), centrifuging off and measuring the receptor-bound ^3H activity in the supernatant.

glucocorticoid receptor = molecular target: T2, glucocorticoid receptor (Rattus norvegicus, UniProt P06536); experiment: Receptor binding affinity, glucocorticoid receptor (competitive binding, thymus cytosol); details: Dexamethasone = 100%; thymus cytosol of adrenalectomized rat; tracer 3H-dexamethasone
T2 construct: receptors in the cytosol of animal target organs; from tissue; host or cells: thymus cytosol of the adrenalectomized rat
T2 sequence (P06536 1-795): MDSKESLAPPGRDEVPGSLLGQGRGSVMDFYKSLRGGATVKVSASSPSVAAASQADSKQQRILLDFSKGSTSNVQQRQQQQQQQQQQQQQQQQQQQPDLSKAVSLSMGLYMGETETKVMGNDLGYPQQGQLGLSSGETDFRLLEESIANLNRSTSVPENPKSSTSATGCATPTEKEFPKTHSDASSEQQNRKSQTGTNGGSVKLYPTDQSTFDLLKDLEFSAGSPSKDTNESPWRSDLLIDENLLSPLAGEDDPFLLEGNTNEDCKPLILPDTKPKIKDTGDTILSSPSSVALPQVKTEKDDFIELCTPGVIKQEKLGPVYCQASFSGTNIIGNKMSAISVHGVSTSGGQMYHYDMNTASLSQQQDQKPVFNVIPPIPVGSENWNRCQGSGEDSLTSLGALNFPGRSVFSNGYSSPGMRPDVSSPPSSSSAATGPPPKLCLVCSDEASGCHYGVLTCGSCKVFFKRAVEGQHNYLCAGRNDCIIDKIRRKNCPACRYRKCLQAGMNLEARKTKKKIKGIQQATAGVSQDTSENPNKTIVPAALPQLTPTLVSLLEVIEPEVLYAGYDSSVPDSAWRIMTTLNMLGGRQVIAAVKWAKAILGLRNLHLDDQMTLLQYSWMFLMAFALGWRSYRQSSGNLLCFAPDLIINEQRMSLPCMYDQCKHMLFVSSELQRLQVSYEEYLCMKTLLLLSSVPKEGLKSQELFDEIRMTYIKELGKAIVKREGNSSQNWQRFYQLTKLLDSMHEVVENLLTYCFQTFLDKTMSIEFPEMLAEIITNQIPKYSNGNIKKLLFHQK
Method: as §1, §2
Glucocorticoid receptor: Thymus cytosol of the adrenalectomized rat. Thymi stored at −30° C.
Tracer: ^3H-dexamethasone, 20 nM.
Reference substance: dexamethasone.
as §3

[1] = tested on: early pregnancy in the rat; experiment: Inhibition of early pregnancy in the rat (early abortive action); type: in vivo; details: s.c., day 5-7 of pregnancy
Method: Inhibition of early pregnancy in the rat Female rats weighing 180-200 g were mated in the proestrus stage. On detection of sperm in the vaginal region on the next day, this is set as day 1 (d=1) of the pregnancy. The rats are treated with test substance or vehicle using 0.2 ml of benzoyl benzoate/castor oil (1+4 v/v) subcutaneously from day 5 to day 7 (d5-d7); autopsy is carried oust painlessly on day d9. The uterus horns was [sic] dissected and examined for intact or damaged nidation sites.

pregnancy of guinea pigs = experiment: Inhibition of late pregnancy in pregnant guinea pigs (abortive action); type: in vivo; details: guinea pig; for Complete inhibition of pregnancy % / Complete inhibition of pregnancy N#/N (non-gravid/mated females): s.c., day 43-44 of pregnancy
Method: Inhibition of late pregnancy in pregnant guinea pigs
Pregnant guinea pigs are treated with test substances from day 43-44. Experimental animals were […] with the test substance in oily solution (0.2-2.0 ml of benzoyl benzoate/castor oil 1+4 v/v) 1× daily on day 43 and 44. Control animals were treated with vehicle. The pregnancy of the animals was monitored until day 50, in particular, the expulsion of fetuses and placentas was observed and recorded.

Relative molar binding affinity RBA (%) to the progesterone receptor (progesterone receptor): 22% | Relative molar binding affinity RBA (%) to the glucocorticoid receptor (glucocorticoid receptor): 39%
SMILES: CN(C)c1ccc([C@H]2C[C@]3(C)[C@@H](CC[C@]3(O)CCCO)[C@@H]3CCC4=CC(=O)CCC4=C32)cc1 [ZK 98299, onapristone, reference compound]
Prostaglandin / PGFM levels in the blood (in words) (guinea pig in cycle): very low prostaglandin levels in the blood | Effect on the vaginal epithelium (in words) (guinea pig in cycle; guinea pig in cycle): induces proliferation and keratinization of the vaginal epithelium

SMILES: CC(=O)[C@H]1CC[C@H]2[C@@H]3CCC4=CC(=O)CC[C@]4(C)[C@H]3CC[C@]12C [progesterone]
Prostaglandin / PGFM levels in the blood (in words) (guinea pig in cycle): raised prostaglandin F metabolite levels

Relative molar binding affinity RBA (%) to the glucocorticoid receptor (glucocorticoid receptor): 685%
SMILES: CC#C[C@]1(O)CC[C@H]2[C@@H]3CCC4=CC(=O)CCC4=C3[C@@H](c3ccc(N(C)C)cc3)C[C@@]21C [RU 486, mifepristone, reference compound]
Inhibition of luteolysis / antiluteolytic activity (in words) (guinea pig in cycle; guinea pig in cycle): slightly antiluteolytically active | Complete inhibition of pregnancy % ([1]; 0.3 mg/(animal × day)): 0% | Complete inhibition of pregnancy % ([1]; 1 mg/(animal × day)): 20% | Complete inhibition of pregnancy % ([1]; 3 mg/(animal × day)): 100%

SMILES: CCSC(=O)O/N=C/c1ccc([C@H]2C[C@@]3(C)[C@@H](CC[C@]3(COC)OC)[C@@H]3CCC4=CC(=O)CCC4=C32)cc1 [Example 3, 4-[17β-Methoxy-17α-(methoxymethyl)-3-oxoestra-4,9-dien-11β-yl]benzaldehyde 1-(E)-[O-(ethylthio)carbonyl]oxime]
Complete inhibition of pregnancy % ([1]; 1 mg/(animal × day)): 0% | Complete inhibition of pregnancy N#/N (non-gravid/mated females) ([1]; 1 mg/(animal × day)): 0/5 | Complete inhibition of pregnancy % ([1]; 3 mg/(animal × day)): 0% | Complete inhibition of pregnancy N#/N (non-gravid/mated females) ([1]; 3 mg/(animal × day)): 0/5 | Complete inhibition of pregnancy % ([1]; 10 mg/(animal × day)): 20% | Complete inhibition of pregnancy N#/N (non-gravid/mated females) ([1]; 10 mg/(animal × day)): 1/5 | Relative molar binding affinity RBA (%) to the progesterone receptor (progesterone receptor): 164% | Complete inhibition of pregnancy % (pregnancy of guinea pigs; 10 mg/animal/day): 0% | Complete inhibition of pregnancy N#/N (non-gravid/mated females) (pregnancy of guinea pigs; 10 mg/animal/day): 0/7 | Complete inhibition of pregnancy % (pregnancy of guinea pigs; 30 mg/animal/day): 0% | Complete inhibition of pregnancy N#/N (non-gravid/mated females) (pregnancy of guinea pigs; 30 mg/animal/day): 0/7 | Complete inhibition of pregnancy % (pregnancy of guinea pigs; 100 mg/animal/day): 0% | Complete inhibition of pregnancy N#/N (non-gravid/mated females) (pregnancy of guinea pigs; 100 mg/animal/day): 0/7 | Interference with the pregnancy of guinea pigs (in words) (pregnancy of guinea pigs; very high doses): incapable even at very high doses of interfering with the pregnancy of guinea pigs | Relative molar binding affinity RBA (%) to the glucocorticoid receptor (glucocorticoid receptor): 42%
